We go through one compound from US8148392B2, “2-indolyl imidazo [4,5-d] phenanthroline derivatives and their use in the treatment of cancer” (Lorus Therapeutics Inc., priority 2005, dated 2012).

For one experiment, the system named is KLF4. The experiment in a line: KLF4 binding to Cyclin D1 promoter, ChIP, HT-29. The format is cell-based, human. The following applies: HT-29, ChIP. Here is the method:
Based on overlapping transcription factor binding sites on Cyclin D1 gene promoter region (FIG. 33A), increased binding of a negative regulator KLF4 may replace the binding of a positive regulator Sp1. In vivo KLF4 and Sp1 binding to Cyclin D1 promoter was shown by chromatin immuno-precipitation assay (ChIP) (FIG. 33B).
Chromatin immunoprecipitation (ChIP) was performed as follows. Cell lysates from HT-29 cells (5.5×10^5 cells in three 15 cm-culture plates in each experimental group) were prepared at the end of the indicated experiments, and ChIP assays were performed using anti-KLF4 and anti-Sp1 antibodies (Santa Cruz Biotechnology Inc.) and ChIP-ITTM kit (Active Motif, Carlsbad, Calif.) by following the manufacturer's instruction. The primers encompassing-231 to -92 region of Cyclin D1 promoter; 5′ primer (5′-CGGACTACAGGGGCAA-3′) [SEQ ID NO:1] and 3′ primer (5′-GCTCCAGGACTTTGCA-3′) [SEQ ID NO:2] were synthesized at Invitrogen.

The subject of a further experiment is p21. Description: p21 mRNA in HT-29 tumour xenografts, RT-PCR. The conditions noted are these: HT-29 xenograft, versus vehicle. The experiment is classed as in vivo, CD-1 female nude mice. On the procedure:
The ability of compound 3 to modulate expression of p21 in vivo was determined using the HT-29 colon tumour xenograft model as described in Example 26. The expression of p21 mRNA was analyzed by real-time polymerase chain reaction analysis using the comparative CT method as described in Example 30.

The subject of another experiment is K-562 leukemia cell line. The experiment in a line: NCI DTP in vitro screen, K-562. The format is cell-based, human. The conditions noted are these: K-562, in words. On the procedure: (§1) For example, the following methodology, which is currently employed by the NCI, can be used to assess the GI50 of a candidate compound of Formula I in the selected cancer cell lines. Briefly, cell suspensions are diluted (5000-40,000 cells per well) and 100 μL of the diluted cell suspension is added into 96-well microtiter plates. Inoculates are allowed a preincubation period of 24 h at 37° C. for stabilization. Dilutions at twice the intended test concentration of the candidate compound are added at time zero in 100 μL aliquots to the microtiter plate wells. Test compounds are generally evaluated at five 10-fold dilutions. In routine testing, the highest well concentration is usually 10E-4 M, but this may be adjusted depending on the compound being tested. […] The cells are then assayed by using the sulforhodamine B assay (see, for example, Skehan, P., et al. (1990) JNCI, J. Natl. Cancer Inst. 82, 1107-1112; and Chen, S. F., et al. (1990) Proc. Am. Assoc. Cancer Res. 31, A2644) employing a plate reader which can be used to read the optical densities.
(§2) Compounds 2 and 3 were evaluated for their antiproliferative effects in a panel of 60 human cancer cell lines as part of the in vitro anticancer screening services provided by the DTP (Developmental Therapeutics Program) of the US National Cancer Institute (NCI).

In another experiment the test system is KLF5. Description: KLF5 gene expression in HT-29 cells, RT-PCR. The format is cell-based, human. The conditions noted are these: HT-29, 1 μM, after 4 hr. Here is the method: HT-29 cells were treated with 1 μM compound 3 for indicated time (FIG. 41B). Total RNA was extracted and gene expression level was determined by RT-PCR.
The next experiment relates to MTF-1. The experiment in a line: MTF-1 DNA-binding activity, EMSA, HT-29 nuclear extract. The experiment is classed as cell-based, human. On the procedure: To verify the change in MTF-1 activity at earlier time of incubation, prior to the significant decrease in MTF-1 gene expression, MTF-1 nuclear translocation and DNA-binding activity was determined in nuclear extract of HT-29 cells treated with compound 3 for 4 hr, by electrophoretic mobility shift assay (EMSA) (FIG. 40B) as follows. HT-29 cells were treated with DMSO, 35 μM ZnCl2 (positive control) and 1 μM compound 3 for 4 hr. Nuclear protein was extracted and incubated with biotin-labeled MTF-1 binding oligonucleotide probes. The retarded mobility of labeled probe upon MTF-1 binding was observed as a band shift (FIG. 40B). […] In zinc-treated groups, 2 additional shift bands (open arrows) were observed (lane 3), indicating the increase in zinc-dependent MTF-1 activity. […] Excess unlabeled probes were added in lane 2, 4 and 6 to compete the labeled probes binding with MTF-1 in the nuclear extract, showing the specificity of MTF-1-binding shift bands in lane 1, 3 and 5, respectively.
HT-29 cells were treated with 35 μM ZnCl2 for 4 hr and the nuclear extract from zinc-treated cells (zinc-activated MTF-1) was treated with compound 3 in vitro and DNA-binding activity of MTF-1 to MRE sequence was assessed by electrophoretic mobility shift assay (EMSA) (Panomics, Redwood City, Calif.).
To examine inactivation of MTF-1 by compound 3 in the cells, HT-29 cells were treated with compound 3 for 1 to 4 hr and DNA-binding activity of MTF-1 in the nuclear extract was assessed by EMSA.
On the technique in general: In EMSA bound probe runs differently from free probe, usually more slowly.

The nature of experiment [1]: In vitro chelation of zinc ions, Zinquin fluorescence. The experiment is classed as physicochemical. The conditions noted are these: ZnCl2 2 μM in PBS, Zinquin 10 μM, 30 min. On the procedure: To determine the chelation property of compound 3 with zinc ions in vitro, free available zinc ions were measured by spectrofluorometry using zinc-sensitive fluorescent dye Zinquin, following pre-incubation of ZnCl2 with different concentrations of compound 3 (FIG. 36). ZnCl2 2 μM was incubated with indicated concentrations of compound 3, in phosphate buffer saline (PBS), followed by addition of Zinquin, 10 μM final concentration for 30 min. Zinquin fluorescence upon zinc binding was measured in a Fluoroskan Ascent luminescence spectrofluorometer, at 364 nm excitation and 485 nm emission wavelengths.

A further experiment has as its system p21 protein. Description: p21 protein in HT-29 total cell lysate, ELISA / Western blot. The format is cell-based, human. The conditions noted are these: HT-29, 1 μM. Here is the method:
The expressions of p21 gene and proteins were examined following treatment with compound 3. Gene expression of p21 in HT-29 cells treated with 1 μM compound 3 was determined at the indicated times as follows. Total RNA was extracted and gene expression level was determined by RT-PCR (FIG. 42A). The level of p21 protein in total cell lysate was measured by ELISA (FIG. 42B) as follows. HT-29 cells were treated with 1 μM compound 3 with and without 20 μM MG-132 (proteasome inhibitor) for indicated time.

In another experiment the test system is Cyclin E. Description: Cyclin E protein in HT-29 cells, Western blotting. The following applies: HT-29, 1 μM. The experiment is classed as cell-based, human.
The subject of experiment [2] is MOLT-4 leukemia cell line. The experiment in a line: NCI DTP in vitro screen, MOLT-4. The experiment is classed as cell-based. The conditions noted are these: Homo sapiens. Here is the method:
as §1, §2

As usually defined, the GI50 is the concentration at which growth is held to half of that of the control. Low values mean greater sensitivity of the cells, high ones lower sensitivity of the cells. Turning to `Cc1[nH]c2ccccc2c1-c1nc2c3cccnc3c3ncccc3c2[nH]1` [Compound 3], the “KLF4 binding to Cyclin D1 promoter” value in the experiment with KLF4 is “Increased KLF4”. Also, the “p21 expression in tumour xenografts” value with p21 is reported as “induced the expression of p21”. Further, the GI50 result is “nanomolar range” with K-562 leukemia cell line and 16 nM in experiment [2]. Moreover, the KLF5 gene expression result in the experiment with KLF5 is given as “decrease in KLF5 gene expression”. The “DNA-binding activity of MTF-1” value with MTF-1 (HT-29 cells treated for 1 to 4 hr) is “Significant decrease in MTF-1 activity”. Also, in the experiment with MTF-1 (HT-29 treated with 1 μM for 4 hr, versus ZnCl2 positive control), the “zinc-dependent MTF-1 DNA-binding activity” value is “zinc-dependent MTF-1 activity was not increased”. The “DNA-binding activity of zinc-activated MTF-1” value in the experiment on MTF-1 (nuclear extract of zinc-treated HT-29 cells treated in vitro) is “Inactivation of MTF-1 DNA-binding”. Further, the “Zinquin fluorescence (free zinc ions)” value in experiment [1] is listed as “Dose-dependent decrease in Zinquin fluorescence”. Also, the p21 protein level result in the experiment with p21 protein (with 20 μM MG-132 (proteasome inhibitor)) is reported as “increased p21 protein level was detected”. For the same compound, in the experiment on p21 protein (without MG-132), the p21 protein expression result is reported as “comparable increase in p21 protein expression was not detected”. In the experiment with Cyclin E, the “Cyclin E expression” value is recorded as “decreased expression of Cyclin E”.
